In PubChem BioAssay (NCI):
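Where inhibition never reached the appropriate level, the endpoint shown equals the highest concentration tested. Otherwise, values were interpolated linearly from a five-concentration, 48-hour dose response in 96-well plates. Here, GI50 denotes the concentration required for 50% inhibition of growth. The concentration for full growth arrest is given as TGI.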

Assays:
Assay in all cases: NCI anticancer screen, dose series, 48 h
[1] = system: 786-0 renal
[2] = system: SF-268 CNS
[3] = system: EKVX NSCLC
[4] = system: TK-10 renal
[5] = system: A549 NSCLC
[6] = system: HL-60(TB) leukemia
[7] = system: HCT-15 colon
[8] = system: RXF 393 renal
[9] = system: HOP-62 NSCLC
[10] = system: ACHN renal
[11] = system: IGROV1 ovarian
[12] = system: A498 renal
[13] = system: UO-31 renal
[14] = system: CCRF-CEM leukemia
[15] = system: HCT-116 colon
[16] = system: NCI-H226 lung
[17] = system: M14 melanoma
[18] = system: HOP-92 NSCLC
[19] = system: NCI-H460 lung
[20] = system: SW-620 colon
[21] = system: CAKI-1 renal
[22] = system: HT29 colon
[23] = system: LOX IMVI melanoma
[24] = system: MDA-MB-435
[25] = system: SN12C renal
[26] = system: OVCAR-3 ovarian
[27] = system: SK-OV-3 ovarian
[28] = system: OVCAR-8 ovarian
[29] = system: SNB-19 CNS
[30] = system: DU-145 prostate
[31] = system: SK-MEL-28 melanoma
[32] = system: SF-539 CNS
[33] = system: MOLT-4 leukemia
[34] = system: NCI-H522 lung
[35] = system: SR leukemia
[36] = system: K-562 leukemia
[37] = system: U251 CNS
[38] = system: RPMI-8226 leukemia
[39] = system: SNB-75 CNS
[40] = system: SK-MEL-2 melanoma
[41] = system: OVCAR-4 ovarian
[42] = system: MDA-MB-231 breast
[43] = system: T-47D breast
[44] = system: HS 578T breast
[45] = system: SK-MEL-5 melanoma
[46] = system: SF-295 CNS
[47] = system: COLO 205 colon
[48] = system: BT-549 breast
[49] = system: KM12 colon
[50] = system: MALME-3M melanoma
[51] = system: UACC-257 melanoma

With CCOC(=O)c1c2c(n(Cc3ccc(Cl)cc3Cl)c1C)-c1nc[nH]c1C(=O)C2=O the GI50 [1] was 3.37 µM, the TGI [1] was 11.3 µM and the GI50 [2] was 7.89 µM. The TGI [2] was 20.4 µM, the GI50 [3] was 13 µM and the TGI [3] was 27.4 µM. It also gave a GI50 [4] of 20.1 µM, a TGI [4] of 41.2 µM and a GI50 [5] of 10.9 µM. For the same molecule, the TGI [5] was 23.1 µM, the GI50 [6] was 2.18 µM and the TGI [6] was 5.14 µM. For the same molecule, the GI50 [7] was 11 µM, the TGI [7] was 23 µM and the GI50 [8] was 10.2 µM. The TGI [8] was 22.7 µM, the GI50 [9] was 16.4 µM and the TGI [9] was 32.6 µM. For the same molecule, the GI50 [10] was 4.45 µM, the TGI [10] was 16.1 µM and the GI50 [11] was 11.2 µM. For the same molecule, the TGI [11] was 24 µM, the GI50 [12] was 19.7 µM and the TGI [12] was 36.1 µM. The GI50 [13] was 12.4 µM, the TGI [13] was 49.5 µM and the GI50 [14] was 0.651 µM. The TGI [14] was 2.29 µM, the GI50 [15] was 2.16 µM and the TGI [15] was 5.66 µM. It also gave a GI50 [16] of 14.2 µM, a TGI [16] of 31.5 µM and a GI50 [17] of 14.7 µM. The TGI [17] was 27.8 µM, the GI50 [18] was 1.28 µM and the TGI [18] was 2.75 µM. The GI50 [19] was 4.79 µM, the TGI [19] was 15.9 µM and the GI50 [20] was 6.19 µM. For the same molecule, the TGI [20] was 18.2 µM, the GI50 [21] was 13.4 µM and the TGI [21] was 31.8 µM. The GI50 [22] was 15.5 µM, the TGI [22] was 28.8 µM and the GI50 [23] was 3.54 µM. For the same molecule, the TGI [23] was 13.7 µM, the GI50 [24] was 13.5 µM and the TGI [24] was 30.1 µM. It also gave a GI50 [25] of 3.02 µM, a TGI [25] of 13.1 µM and a GI50 [26] of 2.86 µM. It also gave a TGI [26] of 10.6 µM, a GI50 [27] of 19.9 µM and a TGI [27] of 34.2 µM. The GI50 [28] was 10.5 µM, the TGI [28] was 22.2 µM and the GI50 [29] was 12.6 µM. The TGI [29] was 26.2 µM, the GI50 [30] was 11.8 µM and the TGI [30] was 24.1 µM. The GI50 [31] was 15.6 µM, the TGI [31] was 28.9 µM and the GI50 [32] was 4.4 µM. It also gave a TGI [32] of 16.4 µM, a GI50 [33] of 1.8 µM and a TGI [33] of 3.97 µM. The GI50 [34] was 10.3 µM, the TGI [34] was 23.1 µM and the GI50 [35] was 1.21 µM. It also gave a TGI [35] of 2.79 µM, a GI50 [36] of 3.21 µM and a TGI [36] of 12.3 µM. It also gave a GI50 [37] of 7.01 µM, a TGI [37] of 19.5 µM and a GI50 [38] of 2.5 µM. It also gave a TGI [38] of 6.03 µM, a GI50 [39] of 1.99 µM and a TGI [39] of 9.62 µM. It also gave a GI50 [40] of 19.5 µM, a TGI [40] of 41.2 µM and a GI50 [41] of 6.58 µM. It also gave a TGI [41] of 19.3 µM, a GI50 [42] of 2.24 µM and a TGI [42] of 5.04 µM. For the same molecule, the GI50 [43] was 1.65 µM, the TGI [43] was 5.03 µM and the GI50 [44] was 23.1 µM. It also gave a TGI [44] of 74.5 µM, a GI50 [45] of 13 µM and a TGI [45] of 25.7 µM. The GI50 [46] was 20.5 µM, the TGI [46] was 92.2 µM and the GI50 [47] was 17.4 µM. It also gave a TGI [47] of 32.1 µM, a GI50 [48] of 15.5 µM and a TGI [48] of 31.8 µM. It also gave a GI50 [49] of 5.87 µM, a TGI [49] of 19.4 µM and a GI50 [50] of 11.6 µM. For the same molecule, the TGI [50] was 27.4 µM, the GI50 [51] was 14.2 µM and the TGI [51] was 27.3 µM.
